Results as given in patent US10544150B2, “NK-3 receptor selective antagonist compounds, pharmaceutical composition and methods for use in NK-3 receptors mediated disorders” (Ogeda SA, priority 2010, dated 2020).
pKi: −log10 of the molar value.

Key:
[1] = biological target: human NK-3 receptor (Homo sapiens (Human), UniProt P29371); test: 3H-SB222200 binding competition assay with human NK-3 receptor; conditions: 3H-SB222200 displacement, CHO cell membranes expressing human NK3 receptor; read-out: Ki range
Chain of human NK-3 receptor (P29371 whole entry): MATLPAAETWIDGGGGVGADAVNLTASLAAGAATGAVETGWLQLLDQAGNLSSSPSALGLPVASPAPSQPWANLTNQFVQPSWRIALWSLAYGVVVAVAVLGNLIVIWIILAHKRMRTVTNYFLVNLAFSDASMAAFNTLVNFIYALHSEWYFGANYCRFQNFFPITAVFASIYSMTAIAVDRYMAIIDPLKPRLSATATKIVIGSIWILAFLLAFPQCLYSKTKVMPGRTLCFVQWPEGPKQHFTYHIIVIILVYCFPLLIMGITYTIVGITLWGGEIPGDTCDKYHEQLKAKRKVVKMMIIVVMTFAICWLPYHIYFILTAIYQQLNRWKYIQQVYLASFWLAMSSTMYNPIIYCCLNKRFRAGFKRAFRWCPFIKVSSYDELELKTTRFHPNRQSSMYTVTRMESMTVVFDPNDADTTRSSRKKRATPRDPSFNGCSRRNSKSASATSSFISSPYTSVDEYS
Procedure, shortened: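 Radioligand displacement: 5 nM tritiated SB222200 competed by varying compound concentrations on recombinant CHO membranes bearing human NK3, buffer pH 7.4 with HEPES, NaCl, CaCl2, MgCl2, BSA and saponin. Filter-bound radioactivity quantified; calculated Ki given as ranges from +++ (<500 nM) to # (>5 μM).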

[2] = system: circulating levels of luteinizing hormone (LH); test: Castrated male rat model, circulating levels of luteinizing hormone (LH); format: in vivo; conditions: castrated male SD rats, single intravenous dose (156 and 144: 10 mg/kg; 71: 15 mg/kg; 114: 20 mg/kg), 60 min post dosing (156 also 120 min), vs. baseline
[3] = system: circulating levels of testosterone; test: Gonad-intact adult male rat, circulating levels of testosterone; format: in vivo; conditions: gonad-intact male SD rats, single intravenous 20 mg/kg dose, over 420 min (AUC)
Procedure: Plasma testosterone levels are represented as an integrated testosterone response (AUC) over a 420 min period following dosing. […] Membrane suspensions were prepared from these cells. The following radioligand: [^125I]-His-MePhe7-Neurokinin B (PerkinElmer Cat # NEX285) was used in this assay. Binding assays were performed in a […]/1 mM CaCl2/5 mM MgCl2/0.5% BSA/10 μg/ml Saponin, at pH 7.4. Binding assays consisted of 25 μl of membrane suspension (approximately 5 μg protein/well in a 96 well plate), 50 μl of compound or reference ligand (MePhe7-Neurokinin B) at increasing concentrations (diluted in assay buffer) and 0.09 nM [^125I]-His-MePhe7-Neurokinin B. The plate was incubated 60 min at 25° C. in a water bath and then filtered over GF/C filters (Perkin Elmer, 6005174, presoaked in assay buffer without saponine for 2 h at room temperature) with a Filtration unit (Perkin Elmer). The radioactivity retained on the filters was measured by using the TopCount-NXT reader (Packard). […]

pKi [1] | SMILES | effect on LH serum levels [2] | effect on plasma testosterone levels [3]
> 6.30 | C[C@@H]1c2nnc(-c3ccc4ccccc4n3)n2CCN1C(=O)c1ccc(-c2cccs2)cc1 [Compound 144, (R)-(8-methyl-3-(quinolin-2-yl)-5,6-dihydro-[1,2,4]triazolo[4,3-a]pyrazin-7(8H)-yl)(4-(thiophen-2-yl)phenyl)methanone] | significantly suppressed GnRH-mediated elevation of LH | –
> 6.30 | C[C@@H]1c2nnc(-c3csc(-c4ccc(F)cc4F)n3)n2CCN1C(=O)c1ccc(-c2cccs2)cc1 [Compound 156, (R)-(3-(2-(2,4-difluorophenyl)thiazol-4-yl)-8-methyl-5,6-dihydro-[1,2,4]triazolo[4,3-a]pyrazin-7(8H)-yl)(4-(thiophen-2-yl)phenyl)methanone] | significantly suppressed GnRH-mediated elevation of LH | significantly suppressed plasma testosterone levels
> 6.30 | Cc1cccc(-c2nnc3n2CCN(C(=O)c2ccc(-c4ccccc4)cc2)C3C)n1 (centres unmarked) [Compound 286, [1,1′-biphenyl]-4-yl(8-methyl-3-(6-methylpyridin-2-yl)-5,6-dihydro-[1,2,4]triazolo[4,3-a]pyrazin-7(8H)-yl)methanone] | – | –

More lines, now with the values behind:

SMILES | pKi [1] | effect on LH serum levels [2] | effect on plasma testosterone levels [3]
C[C@@H]1c2nnc(-c3csc(-c4ccc(F)cc4)n3)n2CCN1C(=O)c1ccc(F)cc1 [Compound 71, (R)-(4-fluorophenyl)(3-(2-(4-fluorophenyl)thiazol-4-yl)-8-methyl-5,6-dihydro-[1,2,4]triazolo[4,3-a]pyrazin-7(8H)-yl)methanone] | > 6.30 | significantly suppressed GnRH-mediated elevation of LH | –
CC1c2nnc(-c3coc(-c4ccccc4)n3)n2CCN1C(=O)c1ccc(-c2cccs2)cc1 (centres unmarked) [Compound 114, (8-methyl-3-(2-phenyloxazol-4-yl)-5,6-dihydro-[1,2,4]triazolo[4,3-a]pyrazin-7(8H)-yl)(4-(thiophen-2-yl)phenyl)methanone] | > 6.30 | significantly suppressed GnRH-mediated elevation of LH | –
Cc1cccc(-c2nnc3n2CCN(C(=O)c2ccc(-c4cccs4)cc2)C3C)n1 (centres unmarked) [Compound 287, (8-methyl-3-(6-methylpyridin-2-yl)-5,6-dihydro-[1,2,4]triazolo[4,3-a]pyrazin-7(8H)-yl)(4-(thiophen-2-yl)phenyl)methanone] | > 6.30 | – | –
